From PubChem BioAssay (NCI)
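96-well plates; 48 h exposure; 5 concentrations. Endpoints by linear interpolation between flanking doses. Not reached: highest tested concentration assigned. GI50: concentration for 50% inhibition of growth. TGI: total growth inhibition.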

Key:
Test in all cases: growth of human tumour cells (NCI), 48 h
786-0 renal = tested on: 786-0 renal
A498 renal = tested on: A498 renal
A549 NSCLC = tested on: A549 NSCLC
ACHN renal = tested on: ACHN renal
BT-549 breast = tested on: BT-549 breast
CAKI-1 renal = tested on: CAKI-1 renal
CCRF-CEM leukemia = tested on: CCRF-CEM leukemia
COLO 205 colon = tested on: COLO 205 colon
DU-145 prostate = tested on: DU-145 prostate
EKVX NSCLC = tested on: EKVX NSCLC
HCC-2998 colon = tested on: HCC-2998 colon
HCT-116 colon = tested on: HCT-116 colon
HCT-15 colon = tested on: HCT-15 colon
HL-60(TB) leukemia = tested on: HL-60(TB) leukemia
HOP-62 NSCLC = tested on: HOP-62 NSCLC
HOP-92 NSCLC = tested on: HOP-92 NSCLC
HS 578T breast = tested on: HS 578T breast
IGROV1 ovarian = tested on: IGROV1 ovarian
K-562 leukemia = tested on: K-562 leukemia
KM12 colon = tested on: KM12 colon
LOX IMVI melanoma = tested on: LOX IMVI melanoma
M14 melanoma = tested on: M14 melanoma
MCF7 breast = tested on: MCF7 breast
MDA-MB-231 breast = tested on: MDA-MB-231 breast
MDA-MB-435 = tested on: MDA-MB-435
MOLT-4 leukemia = tested on: MOLT-4 leukemia
NCI-H226 lung = tested on: NCI-H226 lung
NCI-H23 lung = tested on: NCI-H23 lung

Cc1nn(CN2CCN(C)CC2)c(=S)n1/N=C/c1cccc2ccccc12 was tested, and the GI50 (786-0 renal) was 21.3 µM, the TGI (786-0 renal) was 44.6 µM and the GI50 (A498 renal) was 16.7 µM. The TGI (A498 renal) was 34.7 µM, the GI50 (A549 NSCLC) was 20.6 µM and the TGI (A549 NSCLC) was 46.7 µM. For the same molecule, the GI50 (ACHN renal) was 20.1 µM, the TGI (ACHN renal) was 38.4 µM and the GI50 (BT-549 breast) was 21.1 µM. For the same molecule, the TGI (BT-549 breast) was 47.3 µM, the GI50 (CAKI-1 renal) was 28.2 µM and the TGI (CAKI-1 renal) was 73.5 µM. The GI50 (CCRF-CEM leukemia) was 23.4 µM, the TGI (CCRF-CEM leukemia) was 55.3 µM and the GI50 (COLO 205 colon) was 10.8 µM. For the same molecule, the TGI (COLO 205 colon) was 26.6 µM, the GI50 (DU-145 prostate) was 31.7 µM and the TGI (DU-145 prostate) was over 100 µM. The GI50 (EKVX NSCLC) was 31.8 µM, the TGI (EKVX NSCLC) was over 100 µM and the GI50 (HCC-2998 colon) was 20.9 µM. It also gave a TGI (HCC-2998 colon) of 39 µM, a GI50 (HCT-116 colon) of 18 µM and a TGI (HCT-116 colon) of 35.6 µM. The GI50 (HCT-15 colon) was 16 µM, the TGI (HCT-15 colon) was 33.5 µM and the GI50 (HL-60(TB) leukemia) was 16.7 µM. It also gave a TGI (HL-60(TB) leukemia) of 37 µM, a GI50 (HOP-62 NSCLC) of 20 µM and a TGI (HOP-62 NSCLC) of 42.3 µM. For the same molecule, the GI50 (HOP-92 NSCLC) was 19.9 µM, the TGI (HOP-92 NSCLC) was 46.5 µM and the GI50 (HS 578T breast) was 26.8 µM. The TGI (HS 578T breast) was 74.8 µM, the GI50 (IGROV1 ovarian) was 19.4 µM and the TGI (IGROV1 ovarian) was 55.1 µM. The GI50 (K-562 leukemia) was 15.2 µM, the TGI (K-562 leukemia) was 37.5 µM and the GI50 (KM12 colon) was 19.3 µM. It also gave a TGI (KM12 colon) of 41.4 µM, a GI50 (LOX IMVI melanoma) of 17.6 µM and a TGI (LOX IMVI melanoma) of 31.4 µM. The GI50 (M14 melanoma) was 18.6 µM, the TGI (M14 melanoma) was 39.3 µM and the GI50 (MCF7 breast) was 20.1 µM. It also gave a TGI (MCF7 breast) of 50.9 µM, a GI50 (MDA-MB-231 breast) of 19.3 µM and a TGI (MDA-MB-231 breast) of 44.4 µM. The GI50 (MDA-MB-435) was 18.6 µM, the TGI (MDA-MB-435) was 43 µM and the GI50 (MOLT-4 leukemia) was 19.1 µM. For the same molecule, the TGI (MOLT-4 leukemia) was 41.5 µM, the GI50 (NCI-H226 lung) was 17.1 µM and the TGI (NCI-H226 lung) was 34.9 µM. It also gave a GI50 (NCI-H23 lung) of 21.7 µM.
